This assay concerns the target human CXCR3A (Homo sapiens (Human), UniProt P49682). Kind of assay: FLIPR assay. Format: cell-based. The note with it: CHO-K1 cells expressing the human CXCR3A coupled to Galpha(16); CXCL10 agonist 20 nM; Fluo-4-AM fluorescence; mean values if determined several times. As to the method: The bioactivity of compounds is tested in a fluorometric imaging plate reader (FLIPR: Molecular Devices) using engineered CHO-K1 cells expressing the human CXCR3A coupled to a G protein (Galpha(16)). Cells are plated the day prior to bioassay in F12 medium supplemented with 10% FBS and G418 and hygromycin antibiotics to maintain recombinant selection. At the day of bioassay, cells are washed and dye loaded for one hour with Fluo-4-AM (Invitrogen) in Hanks Balanced Salt Solution (Invitrogen), buffered with 20 mM Hepes at pH 7.4 and sodium bicarbonate (0.015%), containing 5 mM probenecid. […] Cells are washed free of excess dye and 60 microliter of wash buffer is added. Stock solutions of test compounds are made up at a concentration of 10 mM in DMSO, and serially diluted in dilution buffer to concentrations required for inhibition dose response curves. After a 10 minute incubation period at 37° C., 10 microliters of each compound dilution are transferred from a compound plate to the plate containing the recombinant cells in the FLIPR instrument according to the manufacturer's instructions. Following basal readings, 10 microliter CXCL10 agonist at a concentration of 20 nM (from Peprotech) is added, again using the FLIPR instrument. Changes in fluorescence are monitored before and after addition of the test compounds. Emission peak values above base level after CXCL10 addition are exported after base line subtraction. The program XLfit is used to fit the data to a single site dose response curve and to calculate IC50 values.
human CXCR3A, sequence (P49682 whole entry): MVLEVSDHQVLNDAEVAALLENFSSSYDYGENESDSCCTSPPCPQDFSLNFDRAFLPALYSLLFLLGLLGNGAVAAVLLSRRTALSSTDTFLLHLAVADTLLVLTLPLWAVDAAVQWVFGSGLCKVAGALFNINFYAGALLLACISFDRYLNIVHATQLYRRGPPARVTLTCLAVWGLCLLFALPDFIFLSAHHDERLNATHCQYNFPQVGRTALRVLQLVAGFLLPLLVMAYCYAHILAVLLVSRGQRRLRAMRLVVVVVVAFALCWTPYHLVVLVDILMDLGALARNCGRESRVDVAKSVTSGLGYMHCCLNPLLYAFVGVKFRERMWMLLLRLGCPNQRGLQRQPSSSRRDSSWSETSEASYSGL
As usually defined, the IC50 is the point on the concentration scale where inhibition reaches its midpoint. A lower IC50 goes with higher potency. `COc1ccc2[nH]c(-c3ncsc3N3CCN(C(=O)Cn4c(=O)n(C)c5ccccc54)CC3)nc2c1` [Example 33, 1-(2-{4-[4-(5-Methoxy-1H-benzoimidazol-2-yl)-thiazol-5-yl]-piperazin-1-yl}-2-oxo-ethyl)-3-methyl-1,3-dihydro-benzoimidazol-2-one] yielded an IC50 of 5 nM.

In turn, `Cn1c(=O)n(CC(=O)N2CCN(c3scnc3-c3nc4ccc(F)cc4[nH]3)CC2)c2ccccc21` [Example 34, 1-(2-{4-[4-(6-Fluoro-1H-benzoimidazol-2-yl)-thiazol-5-yl]-piperazin-1-yl}-2-oxo-ethyl)-3-methyl-1,3-dihydro-benzoimidazol-2-one] had an IC50 of 10 nM.

`COc1cc2nc(-c3ncsc3N3CCN(C(=O)Cn4c(=O)n(C)c5ccccc54)CC3)[nH]c2cc1OC` [Example 36, 1-(2-{4-[4-(5,6-Dimethoxy-1H-benzoimidazol-2-yl)-thiazol-5-yl]-piperazin-1-yl}-2-oxo-ethyl)-3-methyl-1,3-dihydro-benzoimidazol-2-one] gave an IC50 of 17 nM.

In turn, `Cc1nc(-c2nc3ccccc3[nH]2)c(N2CCN(C(=O)Cn3ccc4cccnc43)CC2)s1` [Example 40, 1-{4-[4-(1H-Benzoimidazol-2-yl)-2-methyl-thiazol-5-yl]-piperazin-1-yl}-2-pyrrolo[2,3-b]pyridin-1-yl-ethanone] came in with an IC50 of 20 nM.

`O=C(Cn1ccc2cccnc21)N1CCN(c2sc(-c3ccccc3)nc2-c2nc3ccccc3[nH]2)CC1` [Example 41, 1-{4-[4-(1H-Benzoimidazol-2-yl)-2-phenyl-thiazol-5-yl]-piperazin-1-yl}-2-pyrrolo[2,3-b]pyridin-1-yl-ethanone] displayed an IC50 of 77 nM.

Turning to `O=C(Cn1ccc2cccnc21)N1CCN(c2sc(Cl)nc2-c2nc3ccccc3[nH]2)CC1` [Example 42, 1-{4-[4-(1H-Benzoimidazol-2-yl)-2-chloro-thiazol-5-yl]-piperazin-1-yl}-2-pyrrolo[2,3-b]pyridin-1-yl-ethanone], the 50% inhibitory concentration (IC50) is 547 nM.

`O=C(Cn1cnc2cccnc21)N1CCCN(c2scnc2-c2nc3ccccc3[nH]2)CC1` [Example 45, 1-{4-[4-(1H-Benzoimidazol-2-yl)-thiazol-5-yl]-[1,4]diazepan-1-yl}-2-imidazo[4,5-b]pyridin-3-yl-ethanone]: the half-inhibitory concentration (IC50) was 48 nM.

Compound `C[C@H]1CN(c2scnc2-c2nc3ccccc3[nH]2)CCN1C(=O)Cn1cnc2cccnc21` [Example 47, 1-{(S)-4-[4-(1H-Benzoimidazol-2-yl)-thiazol-5-yl]-2-methyl-piperazin-1-yl}-2-imidazo[4,5-b]pyridin-3-yl-ethanone] yielded an IC50 of 18 nM.

Compound `O=C(Cn1cnc2cccnc21)N1CCC(c2scnc2-c2nc3ccccc3[nH]2)CC1` [Example 48, 1-{4-[4-(1H-Benzoimidazol-2-yl)-thiazol-5-yl]-piperidin-1-yl}-2-imidazo[4,5-b]pyridin-3-yl-ethanone] yielded an IC50 of 448 nM.

As for `COc1cccc2c1ccn2CC(=O)N1CCN(c2scnc2-c2nc3ccccc3[nH]2)CC1` [Example 52, 1-{4-[4-(1H-Benzoimidazol-2-yl)-thiazol-5-yl]-piperazin-1-yl}-2-(4-methoxy-indol-1-yl)-ethanone], the IC50 is 136 nM.

With `O=C(Cn1ccc2cc(Cl)c(Cl)cc21)N1CCN(c2scnc2-c2nc3ccccc3[nH]2)CC1` [Example 53, 1-{4-[4-(1H-Benzoimidazol-2-yl)-thiazol-5-yl]-piperazin-1-yl}-2-(5,6-dichloro-indol-1-yl)-ethanone], the concentration for half-maximal inhibition (IC50) was 15 nM.

The compound `O=C(Cn1ccc2ccc(C(F)(F)F)cc21)N1CCN(c2scnc2-c2nc3ccccc3[nH]2)CC1` [Example 54, 1-{4-[4-(1H-Benzoimidazol-2-yl)-thiazol-5-yl]-piperazin-1-yl}-2-(6-trifluoromethyl-indol-1-yl)-ethanone] showed an IC50 of 112 nM.

`O=C(Cn1ccc2ccc(F)cc21)N1CCN(c2scnc2-c2nc3ccccc3[nH]2)CC1` [Example 56, 1-{4-[4-(1H-Benzoimidazol-2-yl)-thiazol-5-yl]-piperazin-1-yl}-2-(6-fluoro-indol-1-yl)-ethanone]: the IC50 was found to be 4 nM.

As to `Cc1cc2ccccc2n1CC(=O)N1CCN(c2scnc2-c2nc3ccccc3[nH]2)CC1` [Example 58, 1-{4-[4-(1H-Benzoimidazol-2-yl)-thiazol-5-yl]-piperazin-1-yl}-2-(2-methyl-indol-1-yl)-ethanone], the half-inhibitory concentration (IC50) was found to be 34 nM. This IC50 lies about 8.5-fold higher than the previous one.

`N#Cc1cn(CC(=O)N2CCN(c3scnc3-c3nc4ccccc4[nH]3)CC2)c2ccccc12` [Example 59, 1-(2-{4-[4-(1H-Benzoimidazol-2-yl)-thiazol-5-yl]-piperazin-1-yl}-2-oxo-ethyl)-1H-indole-3-carbonitrile] yielded a concentration for half-maximal inhibition (IC50) of 4 nM.

The compound `COc1cc2c(ccn2CC(=O)N2CCN(c3scnc3-c3nc4ccccc4[nH]3)CC2)cc1Cl` [Example 62, 1-{4-[4-(1H-Benzoimidazol-2-yl)-thiazol-5-yl]-piperazin-1-yl}-2-(5-chloro-6-methoxy-indol-1-yl)-ethanone] displayed an IC50 of 6 nM.

`Cc1cn(CC(=O)N2CCN(c3scnc3-c3nc4ccccc4[nH]3)CC2)c2ccc(F)cc12` [Example 63, 1-{4-[4-(1H-Benzoimidazol-2-yl)-thiazol-5-yl]-piperazin-1-yl}-2-(5-fluoro-3-methyl-indol-1-yl)-ethanone] came in with an IC50 of 13 nM.

`O=C(Cn1c(C(F)(F)F)nc2ccccc21)N1CCN(c2scnc2-c2nc3ccccc3[nH]2)CC1` [Example 64, 1-{4-[4-(1H-Benzoimidazol-2-yl)-thiazol-5-yl]-piperazin-1-yl}-2-(2-trifluoromethyl-benzoimidazol-1-yl)-ethanone] gave an IC50 of 111 nM.

For `Cc1cc2cccnc2n1CC(=O)N1CCN(c2scnc2-c2nc3ccccc3[nH]2)CC1` [Example 66, 1-{4-[4-(1H-Benzoimidazol-2-yl)-thiazol-5-yl]-piperazin-1-yl}-2-(2-methyl-pyrrolo[2,3-b]pyridin-1-yl)-ethanone], the IC50 is 31 nM.

`Cc1cn(CC(=O)N2CCN(c3scnc3-c3nc4ccccc4[nH]3)CC2)c2ncccc12` [Example 67, 1-{4-[4-(1H-Benzoimidazol-2-yl)-thiazol-5-yl]-piperazin-1-yl}-2-(3-methyl-pyrrolo[2,3-b]pyridin-1-yl)-ethanone] had a half-maximal inhibitory concentration (IC50) of 9 nM.

`COc1ccc2ccn(CC(=O)N3CCN(c4scnc4-c4nc5ccccc5[nH]4)CC3)c2n1` [Example 69, 1-{4-[4-(1H-Benzoimidazol-2-yl)-thiazol-5-yl]-piperazin-1-yl}-2-(6-methoxy-pyrrolo[2,3-b]pyridin-1-yl)-ethanone] showed an IC50 of 69 nM. This IC50 lies about 7.7-fold higher than the previous one.

`Cc1ccc2ccn(CC(=O)N3CCN(c4scnc4-c4nc5ccccc5[nH]4)CC3)c2n1` [Example 70, 1-{4-[4-(1H-Benzoimidazol-2-yl)-thiazol-5-yl]-piperazin-1-yl}-2-(6-methyl-pyrrolo[2,3-b]pyridin-1-yl)-ethanone] registered a 50% inhibitory concentration (IC50) of 13 nM.

In the case of `Cn1c(=O)n(CC(=O)N2CCN(c3scnc3-c3nc4ccc(CO)cc4[nH]3)CC2)c2ccccc21` [Example 76, 1-(2-{4-[4-(6-Hydroxymethyl-1H-benzoimidazol-2-yl)-thiazol-5-yl]-piperazin-1-yl}-2-oxo-ethyl)-3-methyl-1,3-dihydro-benzoimidazol-2-one], the half-inhibitory concentration (IC50) stood at 10 nM. The IC50 values of the last two compounds are within 1.5-fold of each other.

`Cc1ccccc1-c1nc(-c2nc3ccccc3[nH]2)c(N2CCN(C(=O)Cn3cnc4cccnc43)[C@H](C)C2)s1` [Example 81, 1-{(R)-4-[4-(1H-Benzoimidazol-2-yl)-2-o-tolyl-thiazol-5-yl]-2-methyl-piperazin-1-yl}-2-imidazo[4,5-b]pyridin-3-yl-ethanone] registered a half-maximal inhibitory concentration (IC50) of 23 nM.

In the case of `COc1ccccc1-c1nc(-c2nc3ccccc3[nH]2)c(N2CCN(C(=O)Cn3cnc4cccnc43)[C@H](C)C2)s1` [Example 82, 1-{(R)-4-[4-(1H-Benzoimidazol-2-yl)-2-(2-methoxy-phenyl)-thiazol-5-yl]-2-methyl-piperazin-1-yl}-2-imidazo[4,5-b]pyridin-3-yl-ethanone], the half-maximal inhibitory concentration (IC50) amounted to 96 nM. Against the preceding compound, the IC50 is about 4.2-fold higher.

As for `C[C@@H]1CN(c2scnc2-c2nc3cc(C(C)(C)C)ccc3[nH]2)CCN1C(=O)Cn1cnc2cccnc21` [Example 86, 1-{(R)-4-[4-(5-tert-Butyl-1H-benzoimidazol-2-yl)-thiazol-5-yl]-2-methyl-piperazin-1-yl}-2-imidazo[4,5-b]pyridin-3-yl-ethanone], the IC50 was 1 nM.

Turning to `C[C@@H]1CN(c2scnc2-c2nc3cc(Cl)c(F)cc3[nH]2)CCN1C(=O)Cn1cnc2cccnc21` [Example 89, 1-{(R)-4-[4-(5-Chloro-6-fluoro-1H-benzoimidazol-2-yl)-thiazol-5-yl]-2-methyl-piperazin-1-yl}-2-imidazo[4,5-b]pyridin-3-yl-ethanone], the half-inhibitory concentration (IC50) was 1 nM.

In the case of `C[C@@H]1CN(c2scnc2-c2nc3c(F)c(F)ccc3[nH]2)CCN1C(=O)Cn1cnc2cccnc21` [Example 90, 1-{(R)-4-[4-(4,5-Difluoro-1H-benzoimidazol-2-yl)-thiazol-5-yl]-2-methyl-piperazin-1-yl}-2-imidazo[4,5-b]pyridin-3-yl-ethanone], the half-inhibitory concentration (IC50) was 2 nM.

Values taken from patent US9266876B2 (Actelion Pharmaceuticals Ltd., priority 2012, dated 2016).
